Like-named read-outs stand apart in the source and are kept apart here.
Target: T1, HLA-DR1 (DRB1*0101) (Homo sapiens, UniProt P01903+P01911, A100R/D57E/F55L/F60I/F76Y/I96L/L162R/M171V/P40L/Q125E/R42F/V115G/Y59C)
T1 construct: the extracellular portion of HLA-DR1 was produced by expression of isolated subunits in Escherichia coli inclusion bodies; made in house
Assay: biochemical
Type: binding

Row | SMILES | IC50 [nM] | IC50 (HLA-DR1 competition assay, unpublished data, read-out: IC50) [nM]
1 | CC[C@H](C)[C@H](NC(=O)[C@H](C)NC(=O)[C@H](CCCNC(=N)N)NC(=O)[C@@H](NC(=O)[C@@H](NC(=O)[C@@H](NC(=O)[C@H](Cc1ccccc1)NC(=O)[C@H](Cc1c[nH]c2ccccc12)NC(=O)[C@H](Cc1ccccc1)NC(=O)[C@H](CO)NC(=O)[C@H](CC(N)=O)NC(=O)[C@@H]1CCCN1C(=O)[C@@H](N)CCCNC(=N)N)C(C)C)C(C)C)C(C)C)C(=O)N[C@@H](C)C(=O)N[C@@H](CO)C(=O)N[C@@H](CCSC)C(=O)N[C@H](C(=O)N[C@@H](CCSC)C(=O)N[C@@H](Cc1ccc(O)cc1)C(=O)N[C@@H](CC(C)C)C(=O)N[C@H](C(=O)O)C(C)C)[C@@H](C)CC [Peptide 304] | 4000 | 
2 | CC[C@H](C)[C@H](NC(=O)[C@H](C)NC(=O)[C@H](CCCNC(=N)N)NC(=O)CNC(=O)[C@@H](NC(=O)[C@@H](NC(=O)[C@H](CCC(N)=O)NC(=O)[C@H](CCCNC(=N)N)NC(=O)[C@H](CC(C)C)NC(=O)[C@H](CO)NC(=O)[C@H](C)NC(=O)[C@H](CCC(=O)O)NC(=O)[C@H](CC(N)=O)NC(=O)[C@H](Cc1c[nH]c2ccccc12)NC(=O)[C@@H](N)[C@@H](C)O)[C@@H](C)CC)C(C)C)C(=O)N[C@@H](CCCNC(=N)N)C(=O)N[C@@H](CC(C)C)C(=O)N[C@@H](CC(N)=O)C(=O)N[C@@H](CO)C(=O)N[C@@H](Cc1c[nH]cn1)C(=O)N[C@H](C(=O)O)C(C)C [Peptide 343] | 210 ± 20 | 
3 | CC[C@H](C)[C@H](NC(=O)[C@H](CCCNC(=N)N)NC(=O)[C@H](CO)NC(=O)CNC(=O)[C@H](CCC(N)=O)NC(=O)[C@H](CCC(=O)O)NC(=O)[C@@H](NC(=O)CNC(=O)[C@H](CC(C)C)NC(=O)[C@@H]1CCCN1C(=O)[C@H](CCCCN)NC(=O)[C@H](CCSC)NC(=O)[C@H](CC(C)C)NC(=O)[C@H](CC(C)C)NC(=O)[C@H](CC(C)C)NC(=O)[C@H](CC(N)=O)NC(=O)[C@H](Cc1ccccc1)NC(=O)[C@H](CCSC)NC(=O)[C@H](CC(=O)O)NC(=O)[C@H](Cc1ccc(O)cc1)NC(=O)[C@@H](N)CO)[C@@H](C)CC)C(=O)O [Peptide 337] | 28 ± 6 | 
4 | CC[C@H](C)[C@H](NC(=O)[C@@H]1CCCN1C(=O)[C@H](CO)NC(=O)CNC(=O)[C@H](CO)NC(=O)[C@H](CC(C)C)NC(=O)[C@H](CC(C)C)NC(=O)[C@H](CC(C)C)NC(=O)[C@H](Cc1ccccc1)NC(=O)[C@@H]1CCCN1C(=O)[C@@H](NC(=O)[C@H](CCCCN)NC(=O)[C@H](CC(N)=O)NC(=O)[C@H](CCCCN)NC(=O)[C@@H](N)CC(N)=O)[C@@H](C)CC)C(=O)N[C@H](C(=O)N[C@@H](CC(N)=O)C(=O)N[C@H](C(=O)N1CCC[C@H]1C(=O)N[C@@H](CC(N)=O)C(=O)N[C@H](C(=O)O)[C@@H](C)O)[C@@H](C)O)[C@@H](C)O [Peptide 316] | 45 ± 19 | 
5 | CC[C@H](C)[C@H](NC(=O)[C@H](Cc1ccc(O)cc1)NC(=O)CNC(=O)[C@H](C)NC(=O)[C@H](CC(C)C)NC(=O)[C@H](CCC(N)=O)NC(=O)[C@H](Cc1ccc(O)cc1)NC(=O)[C@H](Cc1ccc(O)cc1)NC(=O)[C@@H](NC(=O)[C@@H](NC(=O)[C@H](CC(C)C)NC(=O)[C@H](Cc1c[nH]cn1)NC(=O)[C@@H](NC(=O)[C@H](C)N)C(C)C)[C@@H](C)CC)[C@@H](C)CC)C(=O)N[C@@H](CC(C)C)C(=O)N[C@H](C(=O)N[C@H](C(=O)N[C@@H](CC(C)C)C(=O)NCC(=O)N[C@@H](CC(C)C)C(=O)NCC(=O)O)C(C)C)[C@@H](C)O [Peptide 323] | 2170 | 
6 | CC[C@H](C)[C@H](NC(=O)[C@H](CC(N)=O)NC(=O)[C@H](CCSC)NC(=O)[C@H](CS)NC(=O)[C@H](CCC(N)=O)NC(=O)[C@@H](NC(=O)[C@@H](NC(=O)[C@H](CCCCN)NC(=O)CN)[C@@H](C)O)[C@@H](C)O)C(=O)N[C@@H](CCSC)C(=O)N[C@@H](CCC(=O)O)C(=O)N[C@@H](CO)C(=O)N[C@H](C(=O)N1CCC[C@H]1C(=O)N[C@@H](C)C(=O)N[C@@H](CC(N)=O)C(=O)N[C@H](C(=O)N[C@H](C(=O)N[C@@H](CCCCN)C(=O)N[C@@H](Cc1ccc(O)cc1)C(=O)N[C@@H](CC(C)C)C(=O)O)[C@@H](C)CC)[C@@H](C)O)[C@@H](C)CC [Peptide 327] | 11 ± 3 | 
7 | CSCC[C@H](NC(=O)[C@H](CC(=O)O)NC(=O)[C@@H](NC(=O)[C@H](CCCNC(=N)N)NC(=O)[C@H](CCSC)NC(=O)[C@H](Cc1ccccc1)NC(=O)[C@@H]1CCCN1C(=O)[C@@H](NC(=O)[C@H](CCC(N)=O)NC(=O)[C@H](CCCCN)NC(=O)CNC(=O)[C@@H]1CCCN1C(=O)[C@@H](N)CC(N)=O)C(C)C)[C@@H](C)O)C(=O)N[C@@H](CC(C)C)C(=O)O [Peptide B7055] |  | 11
8 | CC[C@H](C)[C@H](N)C(=O)N[C@@H](CO)C(=O)N[C@@H](CCC(=O)O)C(=O)N1CCC[C@H]1C(=O)N[C@H](C(=O)N[C@@H](CC(N)=O)C(=O)N[C@H](C(=O)N[C@@H](Cc1ccc(O)cc1)C(=O)N[C@@H](CC(C)C)C(=O)N[C@@H](CC(C)C)C(=O)N[C@@H](C)C(=O)N[C@@H](C)C(=O)N[C@H](C(=O)N[C@@H](Cc1ccc(O)cc1)C(=O)N[C@@H](CO)C(=O)N[C@@H](CC(=O)O)C(=O)N[C@@H](Cc1ccccc1)C(=O)N[C@@H](CC(N)=O)C(=O)N[C@@H](CC(=O)O)C(=O)N[C@@H](CCC(=O)O)C(=O)N[C@H](C(=O)O)C(C)C)C(C)C)C(C)C)C(C)C [Peptide 341] | 32 ± 2 | 
9 | CC[C@H](C)[C@H](NC(=O)[C@H](CO)NC(=O)[C@H](CCSC)NC(=O)[C@H](CO)NC(=O)[C@H](Cc1ccc(O)cc1)NC(=O)[C@@H](NC(=O)[C@@H](NC(=O)[C@H](CO)NC(=O)[C@@H]1CCCN1C(=O)[C@H](Cc1ccccc1)NC(=O)[C@H](CC(C)C)NC(=O)[C@H](CC(C)C)NC(=O)[C@@H](NC(=O)[C@@H](NC(=O)[C@@H](NC(=O)[C@H](CC(C)C)NC(=O)[C@H](CO)NC(=O)[C@H](CCCNC(=N)N)NC(=O)[C@@H](N)CCSC)[C@@H](C)CC)[C@@H](C)CC)C(C)C)[C@@H](C)CC)[C@@H](C)CC)C(=O)N[C@@H](CCCNC(=N)N)C(=O)N[C@@H](CCCNC(=N)N)C(=O)O [Peptide 319] | 1890 | 
10 | CC[C@H](C)[C@H](NC(=O)[C@H](Cc1ccccc1)NC(=O)[C@H](CCC(=O)O)NC(=O)[C@H](CC(N)=O)NC(=O)[C@@H](N)[C@@H](C)O)C(=O)N[C@@H](CO)C(=O)N[C@@H](Cc1ccccc1)C(=O)N[C@@H](CC(C)C)C(=O)N[C@@H](CC(C)C)C(=O)N[C@@H](CC(C)C)C(=O)N[C@H](C(=O)N[C@@H](CO)C(=O)N[C@H](C(=O)N1CCC[C@H]1C(=O)N[C@H](C(=O)N[C@@H](Cc1ccc(O)cc1)C(=O)N[C@@H](CC(N)=O)C(=O)N[C@H](C(=O)N[C@@H](CC(C)C)C(=O)N[C@@H](Cc1ccccc1)C(=O)N[C@@H](Cc1c[nH]c2ccccc12)C(=O)O)[C@@H](C)CC)[C@@H](C)CC)[C@@H](C)CC)[C@@H](C)O [Peptide 313] | 510 ± 110 | 
11 | CC[C@H](C)[C@H](NC(=O)[C@H](CCCNC(=N)N)NC(=O)[C@H](Cc1ccccc1)NC(=O)[C@H](CC(C)C)NC(=O)[C@H](Cc1ccc(O)cc1)NC(=O)[C@H](CCC(=O)O)NC(=O)[C@H](CO)NC(=O)[C@H](CC(=O)O)NC(=O)[C@@H](N)CCC(=O)O)C(=O)N[C@H](C(=O)N[C@@H](CO)C(=O)N[C@H](C(=O)N[C@H](C(=O)N[C@@H](CC(C)C)C(=O)N1CCC[C@H]1C(=O)N[C@@H](Cc1c[nH]cn1)C(=O)N[C@@H](CC(C)C)C(=O)N[C@@H](CS)C(=O)N[C@@H](CC(C)C)C(=O)N[C@@H](CC(=O)O)C(=O)N[C@@H](Cc1ccc(O)cc1)C(=O)O)C(C)C)[C@@H](C)O)C(C)C [Peptide 334] | 45 ± 8 | 
12 | CC[C@H](C)[C@H](NC(=O)CNC(=O)[C@H](CCCCN)NC(=O)[C@@H](N)Cc1c[nH]c2ccccc12)C(=O)N[C@@H](Cc1ccc(O)cc1)C(=O)N[C@H](C(=O)N[C@@H](Cc1ccc(O)cc1)C(=O)N[C@@H](CCCNC(=N)N)C(=O)N[C@H](C(=O)N[C@H](C(=O)N[C@@H](CCCCN)C(=O)N[C@@H](CO)C(=O)N[C@@H](CO)C(=O)N[C@@H](Cc1ccccc1)C(=O)N1CCC[C@H]1C(=O)N[C@H](C(=O)N1CCC[C@H]1C(=O)N[C@H](C(=O)N[C@H](C(=O)N[C@@H](CCCCN)C(=O)N[C@@H](CO)C(=O)O)[C@@H](C)CC)[C@@H](C)O)C(C)C)[C@@H](C)CC)[C@@H](C)CC)[C@@H](C)O [Peptide 335] | 38 ± 11 | 
13 | CC[C@H](C)[C@H](NC(=O)CNC(=O)[C@@H](NC(=O)[C@H](CC(C)C)NC(=O)[C@H](CCCCN)NC(=O)[C@H](CC(C)C)NC(=O)[C@H](Cc1ccc(O)cc1)NC(=O)[C@H](CCC(=O)O)NC(=O)[C@H](CCCNC(=N)N)NC(=O)[C@@H](NC(=O)[C@H](CO)NC(=O)[C@@H](NC(=O)[C@@H](N)CC(N)=O)[C@@H](C)O)[C@@H](C)O)[C@@H](C)CC)C(=O)N[C@H](C(=O)N[C@@H](C)C(=O)N[C@H](C(=O)N[C@@H](CCSC)C(=O)N[C@@H](Cc1ccccc1)C(=O)N[C@@H](C)C(=O)N[C@H](C(=O)N[C@@H](Cc1ccc(O)cc1)C(=O)O)[C@@H](C)O)[C@@H](C)CC)[C@@H](C)O [Peptide 308] | 23 ± 5 | 
14 | CC[C@H](C)[C@H](N)C(=O)N[C@H](C(=O)N[C@H](C(=O)N[C@@H](Cc1c[nH]c2ccccc12)C(=O)N1CCC[C@H]1C(=O)N[C@@H](CCCCN)C(=O)N[C@@H](Cc1ccccc1)C(=O)N[C@@H](CCCNC(=N)N)C(=O)N[C@H](C(=O)N[C@H](C(=O)N[C@@H](CCCCN)C(=O)N1CCC[C@H]1C(=O)N[C@@H](CC(N)=O)C(=O)N[C@@H](CO)C(=O)N[C@@H](Cc1ccccc1)C(=O)N[C@H](C(=O)N[C@@H](Cc1ccccc1)C(=O)N[C@@H](CO)C(=O)N[C@@H](Cc1ccccc1)C(=O)N[C@@H](CO)C(=O)N[C@@H](CO)C(=O)O)[C@@H](C)O)C(C)C)C(C)C)[C@@H](C)O)[C@@H](C)O [Peptide 344] | 33 ± 5 | 
15 | CC[C@H](C)[C@H](NC(=O)[C@@H](NC(=O)[C@H](CC(N)=O)NC(=O)[C@H](CCCNC(=N)N)NC(=O)[C@H](Cc1c[nH]cn1)NC(=O)[C@H](CCCNC(=N)N)NC(=O)[C@@H](NC(=O)[C@H](Cc1ccc(O)cc1)NC(=O)[C@H](CCC(=O)O)NC(=O)[C@H](C)NC(=O)[C@H](CC(C)C)NC(=O)[C@@H](NC(=O)[C@H](CC(C)C)NC(=O)[C@H](CCCCN)NC(=O)[C@H](Cc1ccccc1)NC(=O)[C@H](CO)NC(=O)[C@H](Cc1ccc(O)cc1)NC(=O)[C@H](CCCCN)NC(=O)[C@H](CC(N)=O)NC(=O)[C@H](Cc1ccc(O)cc1)NC(=O)[C@@H](N)CC(C)C)[C@@H](C)CC)[C@@H](C)CC)[C@@H](C)O)C(=O)O [Peptide 321] | 185 ± 50 | 
